Consider four compounds from PubChem BioAssay AID651884 (Southern Research Specialized Biocontainment Screening …, 2012).

The test system of this assay is VEEV TC-83 infected cells, viral CPE inhibition. In words: Cell based counter screen, viral CPE inhibition, VEEV strain KU V3526 (AID 651884). A general note: Counterscreens check selectivity or assay interference.

For the compound `CN1CCN(C)C(=Nc2ccc([N+](=O)[O-])cc2C(=O)Nc2ccccc2)C1`, the IC50 (usually the point on the concentration scale where inhibition reaches its midpoint) was 19.4 nM. As to `COc1ccc(NC(=O)c2cc([N+](=O)[O-])ccc2N=C2CN(C)CCN2C)cc1`, the IC50 is 17 nM.

Regarding `CCN1CCN(Cc2nc3ccc([N+](=O)[O-])cc3c(=O)n2-c2ccccc2F)CC1`, the IC50 is 325 nM.

For `CCN1CCN(C)CC1=Nc1ccc([N+](=O)[O-])cc1C(=O)Nc1ccccc1`, the IC50 is 20 nM.
